Results reported in patent US11975044B2, “Methods for treating cancers using fat specific protein 27 (FSP27) compositions” (Ohio University, priority 2017, dated 2024).
Read-outs that look alike come from different tables or passages of the source. Residues, ends and D or L forms follow the SMILES beside them. No end group written: not given here.

Tests used:
Format in all cases: cell-based
cells = assay: Anti-cancer effect of FSP27 segment in cells
[1] = test system: HepG2 human liver cancer (hepatocellular carcinoma) cells; assay: cells; details: for efficacy in inhibiting cell viability: human liver cancer, 50 nM; for inhibition of cell viability: human, 100 nM
Protocol: (§1) Human cancer cell lines (part of NCI-60 panel of human cancer cells)—SK-MEL-5 (melanoma), SK-MEL-28 (melanoma), MCF-7 (breast cancer), 786-0 (renal cancer), A498 (renal cancer), Hep-G2 (liver cancer), SK-HEP-1 (liver cancer), PANC-1 (pancreatic cancer), and normal human skin fibroblast cells MALME-3 cells were obtained from American Type Culture Collection (ATCC; Manassas, VA). The cells were grown and maintained in corresponding complete growth medium—PANC-1 in DMEM medium (ATCC), 786-0 in RPMI-1640 medium, remaining cell lines in EMEM media (ATCC), and MALME-3 in McCoy's medium (ATCC)—as indicated by ATCC protocols. Complete growth media was supplemented with 10% fetal bovine serum (FBS; ATCC) and 1× antibiotic-antimycotic (Thermo Fisher Scientific, Waltham, MA). MALME-3 cells were grown in McCoy's medium (ATCC) supplemented with 15% FBS and 1× antibiotic-antimycotic. Cells were grown at 37C/5% CO2 in a humidified incubator. Media was replaced every third day.
(§2) Recombinant hGH was purchased from Antibodies Online (Atlanta, GA), GH antagonist (GHA; Somavert) was obtained from Pfizer (New York City, NY), full length CIDEC was purchased from Abcam (Cambridge, UK) and CIDEC fragment peptides were synthesized at Genscript (Piscataway, NJ). No hGH or GHA was present in the media or added externally unless specifically mentioned. For hGH treatment, 16 hr. after cell seeding (or 24 hr. post-transfection), any GH or GHA or CIDEC or peptides were added at specific concentrations. […]
(§3) A resazurin based absorption assay was performed measuring cell proliferation, as a measure of inhibition of cell growth/viability. There are several commonly practiced assays using tetrazolium (MTT, MTS, XTT), or resazurin which give a quantitative reflection of cell viability. Although ATP detection assay is the most sensitive of the available options, resazurin-based assay is considered adequate and is routinely used to measure compound EC50s or cell viability following cytotoxic treatments. A stock solution of 1% (w/v) resazurin (Sigma-Aldrich #R7017) in 1×PBS was made and filter-sterilized. The final concentration of resazurin in the assay was 0.004%. Proliferating cells can be quantified by spectrophotometric measurement of a bright pink fluorescent product called resorufin (stable for >4 hr) formed when mildly fluorescent blue resazurin enters a reducing intracellular environment characteristic of proliferating cells. Cells were seeded at 10,000 cells/cm^2 into 96-well plates and transfected as described above. The resazurin assay was performed following the respective treatment periods and resorufin absorbance was measured at 570 nm (reference wavelength=600 nm) using Spectramax250 (Molecular Devices, Sunnyvale, CA) and SoftmaxPro software. In all cases, cells were incubated at 37C/5% CO2 for 1 hr following resazurin addition. The resazurin assay for cell proliferation was used to measure EC-50 of relevant drugs and Graph Pad Prism was used to calculate EC-50 shifts (EC50 shift=EC50 of treated cell line/EC50 of parental cell line.
(§4) A 1% (w/v) resazurin (Sigma-Aldrich) solution in 1×PBS was made and filter-sterilized. The final concentration of resazurin in the assay was 0.004%. Inside the proliferating cells mildly fluorescent blue resazurin is reduced to a bright pink fluorescent product called resorufin (stable for 4 hr), which is a quantitative measure of the percentage of proliferating cells. In all cases, cells were incubated at 37C/5% CO2 for 45-60 minutes for adequate sensitivity of detection. Briefly, cells were seeded at 10,000 cells/cm^2 into 96-well plates and transfected as described above. The resazurin assay was performed 60 hr after transfection (unless specified otherwise) and resorufin absorbance was measured at 570 nm (reference wavelength=600 nm) using Spectramax250 (Molecular Devices) and SoftmaxPro v4.7.1 software. […]

[2] = test system: SK-MEL-28 human melanoma cells; details: 48 hr; for efficacy in inhibiting cell viability: human melanoma, 50 nM; for inhibition of cell viability: human, 100 nM
Text: (§5) FIG. 10: Effect of CIDEC and fragment peptides on human melanoma cell (SK-MEL-28) viability. [full-length CIDEC, #1, #2, #4, #5, #6=shorter fragment peptides of full-length CIDEC]; Cell: human melanoma cells SK-MEL-28; Assay: Cell viability assay (Presto-Blue, Invitrogen); Doses (nM): 0, 50, 100; Treatment period (hr): 48.
as §1
as §2, with “mentioned.” for “mentioned. For hGH treatment, 16 hr. after cell seeding (or 24 hr. post-transfection), any GH or GHA or CIDEC or peptides were added at specific concentrations.”
(§6) A resazurin based absorption assay was performed measuring cell proliferation, as a measure of inhibition of cell growth/viability. There are several commonly practiced assays using tetrazolium (MTT, MTS, XTT), or resazurin which give a quantitative reflection of cell viability. […] Proliferating cells can be quantified by spectrophotometric measurement of a bright pink fluorescent product called resorufin (stable for >4 hr) formed when mildly fluorescent blue resazurin enters a reducing intracellular environment characteristic of proliferating cells. […] The resazurin assay was performed following the respective treatment periods and resorufin absorbance was measured at 570 nm (reference wavelength=600 nm) using Spectramax250 (Molecular Devices, Sunnyvale, CA) and SoftmaxPro software. […]
A 1% (w/v) resazurin (Sigma-Aldrich) solution in 1×PBS was made and filter-sterilized. […] Inside the proliferating cells mildly fluorescent blue resazurin is reduced to a bright pink fluorescent product called resorufin (stable for 4 hr), which is a quantitative measure of the percentage of proliferating cells. […]

[3] = test system: 786-O human renal cancer (clear cell renal cell carcinoma) cells; details: for efficacy in inhibiting cell viability: human kidney cancer, 50 nM; for efficacy in inhibiting cell viability / inhibition of cell viability: 48 hr; for inhibition of cell viability: human, 100 nM
Text: as §5, with “11:” for “10:”, “renal cancer” for “melanoma”, “(786-0)” for “(SK-MEL-28)”, “renal cancer cells;” for “melanoma cells SK-MEL-28;”
as §1, §2, §3
as §4, with “above.” for “above. The resazurin assay was performed 60 hr after transfection (unless specified otherwise) and resorufin absorbance was measured at 570 nm (reference wavelength=600 nm) using Spectramax250 (Molecular Devices) and SoftmaxPro v4.7.1 software.”

[4] = test system: human normal fibroblast cells; assay: Cell viability assay (Presto-Blue / resazurin), normal fibroblasts; details: exposure to up to 100 nM CIDEC, 24 hr
Protocol: FIG. 6: Effect of CIDEC on human normal fibroblast cells; Cell: human normal fibroblast cells; Assay: Cell viability assay (Presto-Blue, Invitrogen); Doses (nM): 0, 50, 100 nM; Treatment period (hr): 24.
Human cancer cell lines (part of NCI-60 panel of human cancer cells)—SK-MEL-5 (melanoma), SK-MEL-28 (melanoma), MCF-7 (breast cancer), 786-0 (renal cancer), A498 (renal cancer), Hep-G2 (liver cancer), SK-HEP-1 (liver cancer), PANC-1 (pancreatic cancer), and normal human skin fibroblast cells MALME-3 cells were obtained from American Type Culture Collection (ATCC; Manassas, VA). […]
as §6

[5] = test system: MCF-7 human breast cancer cells; assay: Cell viability assay (Presto-Blue / resazurin), MCF-7
Protocol: as §1, with “MALME-3 cells were grown in McCoy's medium (ATCC) supplemented with 15% FBS and 1× antibiotic-antimycotic. Cells were grown at 37C/5% CO2 in a humidified incubator. Media was replaced every third day.” left out
(§7) A resazurin based absorption assay was performed measuring cell proliferation, as a measure of inhibition of cell growth/viability. There are several commonly practiced assays using tetrazolium (MTT, MTS, XTT), or resazurin which give a quantitative reflection of cell viability. […] Proliferating cells can be quantified by spectrophotometric measurement of a bright pink fluorescent product called resorufin (stable for >4 hr) formed when mildly fluorescent blue resazurin enters a reducing intracellular environment characteristic of proliferating cells. […]

[6] = test system: SK-MEL-28 human melanoma cells
[7] = test system: PANC-1 human pancreatic ductal adenocarcinoma cells; assay: Cell viability assay (Presto-Blue / resazurin), PANC-1
Protocol: as §1, with “MALME-3 cells were grown in McCoy's medium (ATCC) supplemented with 15% FBS and 1× antibiotic-antimycotic. Cells were grown at 37C/5% CO2 in a humidified incubator. Media was replaced every third day.” left out
as §7

## segment 120-140: segment of FSP27, amino acids 120-140; FIG. 13 discloses SEQ ID NO: 4, so possibly Cf4 (SEQGTRHPLSLSHKPAKKIDV)
cells
  efficacy towards anti-cancer effect in cells: maximum efficacy

## COc1cccc2c1C(=O)c1c(O)c3c(c(O)c1C2=O)C[C@@](O)(C(=O)CO)C[C@@H]3O[C@H]1C[C@H](N)[C@H](O)[C@H](C)O1 [doxorubicin, reference compound]
[1]; Homo sapiens, HepG2, read-out: doxorubicin EC50 for HepG2
  EC50: 190 nM
[1]; doxorubicin 300 nM, in absence of CIDEC
  cells killed: > 90%

## CC[C@H](C)[C@H](NC(=O)[C@H](CCCCN)NC(=O)[C@H](CCCCN)NC(=O)[C@H](C)NC(=O)[C@@H]1CCCN1C(=O)[C@H](CCCCN)NC(=O)[C@H](Cc1c[nH]cn1)NC(=O)[C@H](CO)NC(=O)[C@H](CC(C)C)NC(=O)[C@H](CO)NC(=O)[C@H](CC(C)C)NC(=O)[C@@H]1CCCN1C(=O)[C@H](Cc1c[nH]cn1)NC(=O)[C@H](CCCNC(=N)N)NC(=O)[C@@H](NC(=O)CNC(=O)[C@H](CCC(N)=O)NC(=O)[C@H](CCC(=O)O)NC(=O)[C@@H](N)CO)[C@@H](C)O)C(=O)N[C@@H](CC(=O)O)C(=O)N[C@H](C(=O)O)C(C)C [Cf4] (H-SEQGTRHPLSLSHKPAKKIDV-OH; N-terminus and C-terminus assumed)
[2]
  efficacy in inhibiting cell viability: highly efficacious
  inhibition of cell viability: 100%
[1]; 48 hr
  efficacy in inhibiting cell viability: highly efficacious
  inhibition of cell viability: 100%
[3]
  efficacy in inhibiting cell viability: highly efficacious
  inhibition of cell viability: 100%

## YDLHCCGAKRIMKEAFRWALFSMQATGHVLLGTSCYLQQLLDATEEGQ (cysteines drawn unpaired) [Cf2]
[2]
  efficacy in inhibiting cell viability: highly efficacious
  inhibition of cell viability: 100%
[1]; 48 hr
  efficacy in inhibiting cell viability: highly efficacious
  inhibition of cell viability: 100%
[3]
  efficacy in inhibiting cell viability: highly efficacious
  inhibition of cell viability: 100%

B1: CIDEC: human full-length CIDEC (FSP27) protein, purchased from Abcam (protein, UniProt Q96AQ7 1-238, looked up)
chain: MEYAMKSLSLLYPKSLSRHVSVRTSVVTQQLLSEPSPKAPRARPCRVSTADRSVRKGIMAYSLEDLLLKVRDTLMLADKPFFLVLEEDGTTVETEEYFQALAGDTVFMVLQKGQKWQPPSEQGTRHPLSLSHKPAKKIDVARVTFDLYKLNPQDFIGCLNVKATFYDTYSLSYDLHCCGAKRIMKEAFRWALFSMQATGHVLLGTSCYLQQLLDATEEGQPPKGKASSLIPTCLKILQ
modifications: full-length
notes: human full-length CIDEC (FSP27) protein, purchased from Abcam
[4]
  decrease in cell viability of normal cells: no significant decrease in cell viability
[5]; MCF-7, 0-400 nM CIDEC
  EC50: 187 nM
[5]; MCF-7, 24 hr, doses 0-400 nM, read-out: IC50, sigmoid inhibition curve of cell viability
  IC50: 187 nM
[6]; 50 nM CIDEC plus anti-cancer drugs, 48 hr
  improvement of drug effects in human melanoma: did not improve drug effects
[6]; SK-MEL-28, 24 hr, doses 0-400 nM, read-out: IC50, sigmoid inhibition curve of cell viability
  IC50: > 400 nM
[6]; SK-MEL-28, up to 400 nM CIDEC, read-out: EC50 (cell viability)
  EC50: > 400 nM
[6]; co-administration, 24 hr, doxorubicin 300 nM, vemurafenib 50 nM
  improvement of cell inhibition rate above that of doxorubicin or vemurafenib: did not improve the cell inhibition rate
[1]; 50 nM CIDEC plus anti-cancer drug, 48 hr
  effect on efficacy of sorafenib-tosylate against liver cancer: significant increase in efficacy
[1]; HepG2, 0-400 nM CIDEC, read-out: EC50 (dose that causes 50% decrease of cell viability)
  EC50: 65 nM
[1]; HepG2, 24 hr, doses 0-400 nM, read-out: IC50, sigmoid inhibition curve of cell viability
  IC50: 65 nM
[1]; co-administration of fl-CIDEC with sorafenib-tosylate (1000 nM), 24 hr
  decrease in cell viability of liver cancer cells treated with sorafenib-tosylate: 2 fold
[3]; 786-0, up to 400 nM CIDEC, read-out: EC50 (cell viability)
  EC50: > 400 nM
[3]; 786-O, 24 hr, doses 0-400 nM, read-out: IC50, sigmoid inhibition curve of cell viability
  IC50: > 400 nM
[7]; PANC1, 0-400 nM CIDEC
  EC50: 132 nM
[7]; PANC-1, 24 hr, doses 0-400 nM, read-out: IC50, sigmoid inhibition curve of cell viability
  IC50: 132 nM
